Measured values: article PMC6600388 (2019)
Read-outs that look alike come from different tables or passages of the source. Non-standard residues stand in square brackets, D forms with d. Residues, ends and D or L forms follow the SMILES beside them. βAla = NCCC(=O)O

System: human red blood cells
Details: red cells of human

| Structure (SMILES) | IC50 (pH 5.5) | IC50 (pH 7.4) |
| --- | --- | --- |
| N=C(N)NCCC[C@H](NC(=O)[C@H](CCCNC(=N)N)NC(=O)[C@H](CCC(N)=O)NC(=O)[C@H](CCCNC(=N)N)NC(=O)[C@H](CCCNC(=N)N)NC(=O)[C@H](CCCCN)NC(=O)[C@H](CCCCN)NC(=O)[C@H](CCCNC(=N)N)NC(=O)CNC(=O)[C@H](Cc1ccc(O)cc1)NC(=O)[C@@H](N)CS)C(N)=O [Peptide 1, reference compound] (H-CYGRKKRRQRR-NH2) | > 20 µM | > 20 µM |
| CC[C@H](C)[C@H](NC(=O)[C@H](CCCCN)NC(=O)[C@@H](NC(=O)[C@H](CCC(N)=O)NC(=O)[C@H](CCCNC(=N)N)NC(=O)[C@@H](N)CS)[C@@H](C)CC)C(=O)N[C@@H](Cc1c[nH]c2ccccc12)C(=O)N[C@@H](Cc1ccccc1)C(=O)N[C@@H](CCC(N)=O)C(=O)N[C@@H](CC(N)=O)C(=O)N[C@@H](CCCNC(=N)N)C(=O)N[C@@H](CCCNC(=N)N)C(=O)N[C@@H](CCSC)C(=O)N[C@@H](CCCCN)C(=O)N[C@@H](Cc1c[nH]c2ccccc12)C(=O)N[C@@H](CCCCN)C(=O)N[C@@H](CCCCN)C(N)=O [Peptide 2, reference compound] | > 20 µM | > 20 µM |
| CC[C@H](C)[C@H](NC(=O)[C@H](C)NC(=O)[C@H](CCC(=O)O)NC(=O)[C@H](Cc1ccccc1)NC(=O)[C@H](CC(C)C)NC(=O)CNC(=O)[C@@H](N)CS)C(=O)N[C@@H](C)C(=O)NCC(=O)N[C@@H](Cc1ccccc1)C(=O)N[C@H](C(=O)N[C@@H](CCC(=O)O)C(=O)N[C@@H](CC(N)=O)C(=O)NCC(=O)N[C@@H](Cc1c[nH]c2ccccc12)C(=O)N[C@@H](CCC(=O)O)C(=O)NCC(=O)N[C@@H](CCSC)C(=O)N[C@H](C(=O)N[C@@H](CC(=O)O)C(=O)NCC(=O)N[C@@H](Cc1c[nH]c2ccccc12)C(=O)N[C@@H](Cc1ccc(O)cc1)C(=O)NCC(N)=O)[C@@H](C)CC)[C@@H](C)CC [Peptide 3, reference compound] (H-CGLFEAIAGFIENGWEGMIDGWYG-NH2) | > 20 µM | > 20 µM |
| CC[C@H](C)[C@H](NC(=O)[C@H](C)NC(=O)[C@H](CCC(=O)O)NC(=O)[C@H](Cc1ccccc1)NC(=O)[C@H](CC(C)C)NC(=O)CNC(=O)[C@@H](N)CS)C(=O)N[C@@H](CCC(=O)O)C(=O)NCC(=O)N[C@@H](Cc1ccccc1)C(=O)N[C@H](C(=O)N[C@@H](CCC(=O)O)C(=O)N[C@@H](CC(N)=O)C(=O)NCC(=O)N[C@@H](Cc1c[nH]c2ccccc12)C(=O)N[C@@H](CCC(=O)O)C(=O)NCC(=O)N[C@@H](CCSC)C(=O)N[C@H](C(=O)N[C@@H](CC(=O)O)C(=O)NCC(=O)N[C@@H](Cc1c[nH]c2ccccc12)C(=O)N[C@@H](Cc1ccc(O)cc1)C(=O)NCC(N)=O)[C@@H](C)CC)[C@@H](C)CC [Peptide 4, reference compound] | 16 µM | > 20 µM |
| CC[C@H](C)[C@H](NC(=O)[C@H](C)NC(=O)[C@H](Cc1c[nH]cn1)NC(=O)[C@H](Cc1ccccc1)NC(=O)[C@H](CC(C)C)NC(=O)CNC(=O)[C@@H](N)CS)C(=O)N[C@@H](C)C(=O)N[C@@H](Cc1c[nH]cn1)C(=O)N[C@@H](Cc1ccccc1)C(=O)N[C@H](C(=O)N[C@@H](Cc1c[nH]cn1)C(=O)NCC(=O)NCC(=O)N[C@@H](Cc1c[nH]c2ccccc12)C(=O)N[C@@H](Cc1c[nH]cn1)C(=O)NCC(=O)N[C@@H](CC(C)C)C(=O)N[C@H](C(=O)N[C@@H](Cc1c[nH]cn1)C(=O)NCC(=O)N[C@@H](Cc1c[nH]c2ccccc12)C(=O)N[C@@H](Cc1ccc(O)cc1)C(=O)NCC(=O)N[C@@H](Cc1ccc(O)cc1)C(=O)NCC(=O)N[C@@H](CCCNC(=N)N)C(=O)N[C@@H](CCCCN)C(=O)N[C@@H](CCCCN)C(=O)N[C@@H](CCCNC(=N)N)C(=O)N[C@@H](CCCNC(=N)N)C(=O)N[C@@H](CCC(N)=O)C(=O)N[C@@H](CCCNC(=N)N)C(=O)N[C@@H](CCCNC(=N)N)C(N)=O)[C@@H](C)CC)[C@@H](C)CC [Peptide 7] (H-CGLFHAIAHFIHGGWHGLIHGWYGYGRKKRRQRR-NH2) | 5.9 µM | 0.3 µM |
| CC[C@H](C)[C@H](NC(=O)[C@H](C)NC(=O)[C@H](CCC(=O)O)NC(=O)[C@H](Cc1ccccc1)NC(=O)[C@H](CC(C)C)NC(=O)CNC(=O)[C@@H](N)CS)C(=O)N[C@@H](CCC(=O)O)C(=O)NCC(=O)N[C@@H](Cc1ccccc1)C(=O)N[C@H](C(=O)N[C@@H](CCC(=O)O)C(=O)N[C@@H](CC(N)=O)C(=O)NCC(=O)N[C@@H](Cc1c[nH]c2ccccc12)C(=O)N[C@@H](CCC(=O)O)C(=O)NCC(=O)N[C@@H](CC(C)C)C(=O)N[C@H](C(=O)N[C@@H](CC(=O)O)C(=O)NCC(=O)N[C@@H](Cc1c[nH]c2ccccc12)C(=O)N[C@@H](Cc1ccc(O)cc1)C(=O)NCC(=O)N[C@@H](Cc1ccc(O)cc1)C(=O)NCC(=O)N[C@@H](CCCNC(=N)N)C(=O)N[C@@H](CCCCN)C(=O)N[C@@H](CCCCN)C(=O)N[C@@H](CCCNC(=N)N)C(=O)N[C@@H](CCCNC(=N)N)C(=O)N[C@@H](CCC(N)=O)C(=O)N[C@@H](CCCNC(=N)N)C(=O)N[C@@H](CCCNC(=N)N)C(N)=O)[C@@H](C)CC)[C@@H](C)CC [Peptide 28g] | 0.71 µM | 2.9 µM |
| CC[C@H](C)[C@H](NC(=O)[C@H](C)NC(=O)[C@H](CCC(=O)O)NC(=O)[C@H](Cc1ccccc1)NC(=O)[C@H](CC(C)C)NC(=O)CNC(=O)[C@@H](N)CS)C(=O)N[C@@H](CCC(=O)O)C(=O)NCC(=O)N[C@@H](Cc1ccccc1)C(=O)N[C@H](C(=O)N[C@@H](CCC(=O)O)C(=O)N[C@@H](CC(N)=O)C(=O)NCC(=O)N[C@@H](Cc1c[nH]c2ccccc12)C(=O)N[C@@H](CCC(=O)O)C(=O)NCC(=O)N[C@@H](CCSC)C(=O)N[C@H](C(=O)N[C@@H](CC(=O)O)C(=O)NCC(=O)NCC(=O)NCC(=O)NCC(=O)N[C@@H](Cc1ccc(O)cc1)C(=O)NCC(=O)N[C@@H](CCCNC(=N)N)C(=O)N[C@@H](CCCCN)C(=O)N[C@@H](CCCCN)C(=O)N[C@@H](CCCNC(=N)N)C(=O)N[C@@H](CCCNC(=N)N)C(=O)N[C@@H](CCC(N)=O)C(=O)N[C@@H](CCCNC(=N)N)C(=O)N[C@@H](CCCNC(=N)N)C(N)=O)[C@@H](C)CC)[C@@H](C)CC [Peptide 32b] (H-CGLFEAIEGFIENGWEGMIDGGGGYGRKKRRQRR-NH2) | > 10 µM | > 10 µM |
| CC[C@H](C)[C@H](NC(=O)[C@H](C)NC(=O)[C@H](CCC(=O)O)NC(=O)[C@H](C)NC(=O)[C@H](CC(C)C)NC(=O)CNC(=O)[C@@H](N)CS)C(=O)N[C@@H](CCC(=O)O)C(=O)NCC(=O)N[C@@H](Cc1ccccc1)C(=O)N[C@H](C(=O)N[C@@H](CCC(=O)O)C(=O)N[C@@H](CC(N)=O)C(=O)NCC(=O)N[C@@H](CC(C)C)C(=O)N[C@@H](CCCCN)C(=O)NCC(=O)N[C@@H](CC(C)C)C(=O)N[C@H](C(=O)N[C@@H](CC(=O)O)C(=O)N[C@@H](Cc1c[nH]c2ccccc12)C(=O)N[C@@H](Cc1c[nH]c2ccccc12)C(=O)N[C@@H](Cc1ccc(O)cc1)C(=O)NCC(=O)N[C@@H](Cc1ccc(O)cc1)C(=O)NCC(=O)N[C@@H](CCCNC(=N)N)C(=O)N[C@@H](CCCCN)C(=O)N[C@@H](CCCCN)C(=O)N[C@@H](CCCNC(=N)N)C(=O)N[C@@H](CCCNC(=N)N)C(=O)N[C@@H](CCC(N)=O)C(=O)N[C@@H](CCCNC(=N)N)C(=O)N[C@@H](CCCNC(=N)N)C(N)=O)[C@@H](C)CC)[C@@H](C)CC [Peptide 58] (H-CGLAEAIEGFIENGLKGLIDWWYGYGRKKRRQRR-NH2) | 0.06 µM | 2 µM |
| CC[C@H](C)[C@H](NC(=O)[C@H](Cc1ccccc1)NC(=O)[C@H](CCC(=O)O)NC(=O)[C@H](CCC(=O)O)NC(=O)[C@@H](NC(=O)[C@H](Cc1ccccc1)NC(=O)[C@H](CCC(=O)O)NC(=O)[C@H](Cc1ccccc1)NC(=O)CNC(=O)CCNC(=O)[C@@H](N)CS)[C@@H](C)CC)C(=O)N[C@@H](CCC(=O)O)C(=O)N[C@@H](CC(N)=O)C(=O)NCC(=O)N[C@@H](CC(C)C)C(=O)N[C@@H](CCCCN)C(=O)N[C@@H](CC(N)=O)C(=O)N[C@@H](CC(C)C)C(=O)N[C@H](C(=O)N[C@@H](CC(=O)O)C(=O)N[C@@H](Cc1c[nH]c2ccccc12)C(=O)N[C@@H](Cc1c[nH]c2ccccc12)C(=O)N[C@@H](Cc1ccc(O)cc1)C(=O)NCC(=O)N[C@@H](Cc1ccc(O)cc1)C(=O)NCC(=O)N[C@@H](CCCNC(=N)N)C(=O)N[C@@H](CCCCN)C(=O)N[C@@H](CCCCN)C(=O)N[C@@H](CCCNC(=N)N)C(=O)N[C@@H](CCCNC(=N)N)C(=O)N[C@@H](CCC(N)=O)C(=O)N[C@@H](CCCNC(=N)N)C(=O)N[C@@H](CCCNC(=N)N)C(N)=O)[C@@H](C)CC [Peptide 60] (H-C[βAla]GFEFIEEFIENGLKNLIDWWYGYGRKKRRQRR-NH2) | 1.14 µM | 12.8 µM |
| CC[C@H](C)[C@H](NC(=O)[C@H](CCC(=O)O)NC(=O)CNC(=O)[C@H](Cc1ccccc1)NC(=O)[C@H](CC(C)C)NC(=O)CNC(=O)[C@@H](N)CS)C(=O)N[C@@H](CCC(=O)O)C(=O)N[C@@H](CCC(=O)O)C(=O)N[C@@H](CC(C)C)C(=O)N[C@H](C(=O)N[C@@H](CCC(=O)O)C(=O)N[C@@H](CCC(=O)O)C(=O)NCC(=O)N[C@@H](CC(C)C)C(=O)N[C@@H](CCCCN)C(=O)N[C@@H](CC(N)=O)C(=O)N[C@@H](CC(C)C)C(=O)N[C@H](C(=O)N[C@@H](CC(=O)O)C(=O)N[C@@H](Cc1c[nH]c2ccccc12)C(=O)N[C@@H](Cc1c[nH]c2ccccc12)C(=O)N[C@@H](Cc1ccc(O)cc1)C(=O)NCC(=O)N[C@@H](Cc1ccc(O)cc1)C(=O)NCC(=O)N[C@@H](CCCNC(=N)N)C(=O)N[C@@H](CCCCN)C(=O)N[C@@H](CCCCN)C(=O)N[C@@H](CCCNC(=N)N)C(=O)N[C@@H](CCCNC(=N)N)C(=O)N[C@@H](CCC(N)=O)C(=O)N[C@@H](CCCNC(=N)N)C(=O)N[C@@H](CCCNC(=N)N)C(N)=O)[C@@H](C)CC)[C@@H](C)CC [Peptide 61] (H-CGLFGEIEELIEEGLKNLIDWWYGYGRKKRRQRR-NH2) | 0.97 µM | 8.07 µM |
